The record followed here is patent publication US20260207720A1, “COMPOSITIONS AND METHODS FOR TREATING FUNGAL INFECTIONS” (MUCPharm Pty Ltd, priority 2022, published 2026).

For this assay, the system named is Mucormycete group (Rhizopus microspores, Fusarium solani cx, Rhizopus arrhizus and Candida krusei QC). The experiment in a line: Susceptibility assay of bromelain and acetylcysteine alone or together (Example 1). Format: cell-based. The settings on record: in isolation, R. microsporus, read-out: MIC required to inhibit Mucormycete growth. As for the experimental part:
Unless otherwise described, fungal cultures were grown on potato dextrose agar plates at 35° C. until mature (appearance of conidia) and used to prepare suspensions in sterile water. Suspensions were diluted in RPMI 1:60. These suspensions were then added in equal volume to solutions containing the candidate species described above and incubated at 35° C. for 24 hr. Plates were then analysed for fungal growth inhibition and MIC values determined. […] Initial tests were conducted on one strain of Rhizopus microsporus, one strain of Rhizopus arrhizus and one strain of Candida krusei QC, all sourced clinically.

Values after ≈ are worked out from the molar mass of the structure shown.

For `CC(=O)N[C@@H](CS)C(=O)O` [Acetylcysteine, N-acetylcysteine], the MIC is 10 µg/mL (≈ 61.3 µM).

The MIC is the smallest concentration in the dilution series that meets the test's criterion for growth inhibition.
